Several values for one entry are separate records, joined by “and”; a condition that tells them apart may be missing. Equal values may be shown once.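 1) Cells in 96-well plates. 2) Compound, 48 h, 5 concentrations. 3) Linear interpolation between surrounding doses. 4) Unreached endpoint = highest concentration. At the GI50, growth is halved. TGI: total growth inhibition.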
Tests used:
Assay in all cases: growth of human tumour cells (NCI), 48 h
UO-31 renal = tested on: UO-31 renal
HS 578T breast = tested on: HS 578T breast
SNB-19 CNS = tested on: SNB-19 CNS
K-562 leukemia = tested on: K-562 leukemia
U251 CNS = tested on: U251 CNS
HCT-15 colon = tested on: HCT-15 colon
DU-145 prostate = tested on: DU-145 prostate
NCI-H226 lung = tested on: NCI-H226 lung
A498 renal = tested on: A498 renal
OVCAR-3 ovarian = tested on: OVCAR-3 ovarian

SMILES	TGI (UO-31 renal)	TGI (HS 578T breast) [µM]	TGI (SNB-19 CNS) [µM]	TGI (K-562 leukemia) [µM]	TGI (U251 CNS) [µM]	TGI (HCT-15 colon) [µM]	TGI (DU-145 prostate) [µM]	TGI (NCI-H226 lung) [µM]	TGI (A498 renal) [µM]	TGI (OVCAR-3 ovarian) [µM]	GI50 (UO-31 renal) [µM]	GI50 (HS 578T breast) [µM]	GI50 (SNB-19 CNS) [µM]	GI50 (K-562 leukemia) [µM]	GI50 (U251 CNS) [µM]	GI50 (HCT-15 colon)	GI50 (DU-145 prostate) [µM]	GI50 (NCI-H226 lung) [µM]	GI50 (A498 renal)	GI50 (OVCAR-3 ovarian) [µM]
O=S(=O)(c1cccc(C(F)(F)F)c1)N1c2ccccc2-n2cccc2C1c1cccnc1 (configuration not stated)	34.3 µM	> 76.3	> 72.9	> 86.4	> 53.1	> 91.4	> 55.2	> 53	> 64	> 55	–	–	–	–	–	–	–	–	–	–
CS(=O)(=O)c1nccc(-c2c(-c3cccc(OCc4ccc(F)cc4)c3)nc3sccn23)n1	5.57 µM	> 100	> 96.7	> 100	> 100	> 100	3.41	> 100	65.2	> 100	2.19	14.3	26	6.67	33.1	10.9 µM	1.92	21.6	18.2 µM	19
COC(=O)OCC1OC(N2C(=O)NC(=O)C(I)C2N=[N+]=[N-])CC1OC(=O)OC (configuration not stated)	> 100 µM	–	> 100	> 100	> 100	> 100	–	> 100	–	> 100	–	–	–	–	–	–	–	–	–	–
COc1ccccc1-c1cc2c3c(nc4ccccc42)C(=O)c2cccnc2-c3n1	23.3 µM	37.9	33.8	> 100	11.4	8.62	28.5	33	47.4	> 37.5	11.1	17.9	17.4	> 19.6	3.77	3.55 µM	13.8	15.3	18.9 µM	1.56
O=c1/c(=C/c2cccc3ccccc23)sc2nc3ccccc3n12	> 100 µM	–	> 100	> 100	> 100	> 100	–	> 100	> 100	> 100	–	–	–	–	–	–	–	–	–	–
COC(=O)c1cnc2nc(N3CCOCC3)[nH]n2c1=O	> 100 µM	–	> 100	> 100	> 100	> 100	–	> 100	> 100	> 100	–	–	–	–	–	–	–	–	–	–
COc1ccc(-c2cc3c4c(nc5ccccc5c4c2)CC(c2cc(OC)c(OC)c(OC)c2)O3)cc1 (configuration not stated)	–	6.81	12.8	> 100	4.83	> 100	> 100	3.89	13.4	4.28	–	1.24	3.3	3.37	1.76	3.73 µM	2.96	1.71	3.39 µM	1.86
COc1ccc(C2C3=C(NC(=O)C2C#N)c2ccc4ccccc4c2OCC3)cc1 (configuration not stated)	> 100 µM	56.6	> 100	> 100	54.2	> 100	> 100	–	64.6	> 100	64.1	22.6	58.8	> 100	23.6	> 100 µM	31.4	–	10.6 µM	70.4
[Cu+2].[Cu+2].[O-]c1ccccc1C=Nc1ccccc1[O-].[O-]c1ccccc1C=Nc1ccccc1[O-]	25.2 µM	–	17.8	52.9	–	21.5	–	36.5	28.1	15.8	12.6	–	5.32	4.07	–	7.25 µM	–	20.4	14.4 µM	5.56
O=CC1=CCCC2(C1)OCCO2	> 100 µM	–	> 100	> 100	> 100	> 100	–	–	> 100	> 100	–	–	–	–	–	–	–	–	–	–
CCCCN(CC)C(=O)C(=O)C1C(=O)Nc2ccccc2S1=O (configuration not stated)	> 100 µM	–	> 100	> 100	> 100	> 100	–	> 100	> 100	> 100	–	–	–	–	–	–	–	–	–	–
COc1cc2c(cc1OC)C1c3ccccc3C(C#N)(C2)N(C(=O)c2ccccc2)C1O (configuration not stated)	> 100 µM	–	> 100	> 100	> 100	> 100	–	> 100	–	> 100	–	–	–	–	–	–	–	–	–	–
CN(C)CCNC(=O)c1ccc2ccc3cccnc3c2n1	47.9 µM	–	> 93	> 100	> 88.8	63.5	–	39.6	> 57.4	99	–	–	–	–	–	–	–	–	–	–
CC(=O)[CH-]C(=O)c1ccccc1.CC(=O)[CH-]C(=O)c1ccccc1.[Nd+3].[OH-].[OH3+]	> 100 µM	–	> 100	> 100	> 100	> 100	–	> 100	> 100	> 100	> 100	–	> 100	> 100	> 100	> 100 µM	–	> 100	> 100 µM	> 100
O=C1Nc2ccc(Cl)cc2/C1=C\c1c(-c2ccc(F)cc2)nc2ccccn12	5.61 µM	8.37	27.4	–	5.13	16.2	7.15	5.21	4.51	3.8	2.1	2.2	3.33	–	2.05	3.15 µM	2.67	2.07	1.21 µM	1.89
CC(=O)O[C@]1(C(C)=O)CC[C@H]2[C@@H]3C[C@H](C)C4=CC(=O)C=C[C@]4(C)[C@@]3(F)[C@@H](O)C[C@@]21C	98.9 µM	–	> 100	> 100	> 100	> 100	–	> 100	–	> 100	–	–	–	–	–	–	–	–	–	–
O=C(NC1CCCCC1)c1c(O)[nH]c(=S)[nH]c1=O	> 100 µM	–	> 100	–	> 100	> 100	–	> 100	> 100	> 100	–	–	–	–	–	–	–	–	–	–
O=C(O)CSc1n[nH]c(/C=C/c2ccccc2)n1	> 100 µM	–	> 100	> 100	> 100	> 100	–	> 100	> 100	> 100	–	–	–	–	–	–	–	–	–	–
CC(NC(=O)c1ccccc1)C(=O)N(Cc1ccccc1)Cc1ccccc1 (configuration not stated)	83.9 µM	–	> 100	43.5	91.7	88.9	–	56.3	89.9	–	–	–	–	–	–	–	–	–	–	–
N=C(N)/N=C(/C=C/c1ccccc1)CC1OC(=O)c2ccccc21 (configuration not stated)	> 100 µM	–	> 100	> 100	> 100	> 100	–	> 100	> 100	–	–	–	–	–	–	–	–	–	–	–
O=C1CCC2(c3ccc(F)cc3)Nc3ccccc3N12 (configuration not stated)	> 100 µM	–	–	> 100	> 100	> 100	–	> 100	> 100	> 100	–	–	–	–	–	–	–	–	–	–

SMILES	TGI (UO-31 renal)	TGI (HS 578T breast) [µM]	TGI (SNB-19 CNS) [µM]	TGI (K-562 leukemia) [µM]	TGI (U251 CNS) [µM]	TGI (HCT-15 colon) [µM]	TGI (DU-145 prostate) [µM]	TGI (NCI-H226 lung) [µM]	TGI (A498 renal) [µM]	TGI (OVCAR-3 ovarian) [µM]	GI50 (UO-31 renal) [µM]	GI50 (HS 578T breast) [µM]	GI50 (SNB-19 CNS) [µM]	GI50 (K-562 leukemia) [µM]	GI50 (U251 CNS) [µM]	GI50 (HCT-15 colon)	GI50 (DU-145 prostate) [µM]	GI50 (NCI-H226 lung) [µM]	GI50 (A498 renal)	GI50 (OVCAR-3 ovarian) [µM]
O=c1cc2n(c(=O)[nH]1)C1OC(C(O)C1O)[C@@H]2CCO (some centres not stated)	> 100 µM	–	> 100	> 100	> 100	–	–	–	> 100	–	–	–	–	–	–	–	–	–	–	–
COc1ccc2c(c1)Oc1nc(N)c(C#N)c(N)c1C2Sc1ccc(SC)cc1 (configuration not stated)	2.84 µM	–	3.18	10.3	3.19	3.33	3.19	3.58	3.3	3.19	1.51	–	1.77	2.71	1.73	1.58 µM	1.79	1.92	1.77 µM	1.75
COc1cc2c(cc1OC)C13CCN4CC5=CCOC(CC(=O)O)C(C5CC41)C3N2 (configuration not stated)	> 100 µM	> 100	> 100	> 100	> 100	> 100	–	> 100	> 100	> 100	–	–	–	–	–	–	–	–	–	–
O=C1c2ccn(CCCCN3CCOCC3)c2C(=O)c2c1c(O)c1ccccc1c2O	> 100 µM	> 100	60.4	4.53	31.8	25.5	–	42.5	> 100	8.77	27.5	29.8	19.6	2	10.9	3.82 µM	–	5.32	19.3 µM	1.62
COc1ccc(CC(=O)c2cc(OC)c(OC)cc2C)cc1OC	> 100 µM	–	> 100	> 100	> 100	> 100	–	–	> 100	> 100	–	–	–	–	–	–	–	–	–	–
O=C(/C=C/c1ccc(OCCCCCCCCCCOc2ccc(/C=C/C(=O)c3ccc(Cl)cc3)cc2)cc1)c1ccc(Cl)cc1	> 100 µM	–	> 100	> 100	> 100	> 100	–	> 100	> 100	> 100	–	–	–	–	–	–	–	–	–	–
COc1cc(OC)cc(N2CCC(c3c(N)nc(N)nc3Cl)CC2)c1	> 100 µM	–	> 100	> 100	–	> 100	–	–	–	> 100	–	–	–	–	–	–	–	–	–	–
Cc1cccc(C)c1NC(=O)CCC(=O)NNC(=O)c1cc(O)c2ccccc2c1	> 100 µM	–	> 100	> 100	> 100	> 100	–	> 100	3.78	> 100	–	–	–	–	–	–	–	–	–	–
Cc1c(/C=C2\CC/C(=C\c3[nH]c(C(=O)OC(C)(C)C)c(C)c3C)C2=O)[nH]c(C(=O)OC(C)(C)C)c1C	> 100 µM	–	> 100	> 100	> 100	> 100	–	> 100	> 100	> 100	–	–	–	–	–	–	–	–	–	–
Cc1ccc(S(=O)(=O)N(C)C)cc1[N+](=O)[O-]	> 100 µM	> 100	> 100	–	> 100	> 100	> 100	> 100	> 100	> 100	21.5	> 100	> 100	–	> 100	> 100 µM	> 100	> 100	> 100 µM	> 100
CCc1nc2c(O)ccc(O)c2nc1C	33.5 µM	–	33.7	> 20.8	30.2	30.6	–	29.9	35.2	28.5	–	–	–	–	–	–	–	–	–	–
COc1ccc(CNc2cc(OC)cc(OC)c2)cc1	> 100 µM and 97.8 µM	–	> 100	> 100	> 100	> 100	–	> 100	> 100	> 100	–	–	–	–	–	> 100 µM and 46.6 µM	–	–	> 100 µM and 14.7 µM	–
CN(C)CCC1(C2=CCCC2)CC/C(=C\c2ccc3c(c2)OCO3)C1=O (configuration not stated)	20.2 µM	–	43.5	32	29	29	–	–	24.7	31.6	–	–	–	–	–	–	–	–	–	–
N#C/C(=C\c1ccc(CP(=O)(O)O)cc1)C(N)=O	> 100 µM	–	> 100	> 100	> 100	> 100	–	> 100	> 100	> 100	–	–	–	–	–	–	–	–	–	–
CS(=O)(=O)C1S(=O)(=O)OCCOS1(=O)=O	> 100 µM	–	> 100	> 100	> 100	–	–	> 100	> 100	> 100	–	–	–	–	–	–	–	–	–	–
O=C(Cc1ccccc1)Oc1ccc2c(-c3ccccc3)c(C(=O)Nc3ccc(Cl)cc3)c(=O)oc2c1	> 100 µM	–	> 100	> 100	> 100	> 100	–	> 100	> 100	> 100	–	–	–	–	–	–	–	–	–	–
OCC(O)CC[CH2][Sn]([c]1ccccc1)([c]1ccccc1)[c]1ccccc1 (configuration not stated)	28.4 µM	–	33.7	23.8	30.2	26.8	–	70.8	–	29.8	14.8	–	19.4	8.59	15.6	12.7 µM	–	19	–	16.2
CC(C)(C)c1nc2c(o1)C(=Nc1ccccc1)c1ccccc1C2=O	24.3 µM	–	27.5	44.8	14	27.9	–	23.5	36.4	6.24	–	–	–	–	–	–	–	–	–	–
CC1OCC2OC(C)OC(C3C4=C(CC(C)(C)CC4=O)OC4=C3C(=O)CC(C)(C)C4)C2O1 (configuration not stated)	> 100 µM	> 100	> 100	> 100	–	> 100	> 100	> 100	> 100	> 100	–	–	–	–	–	–	–	–	–	–
CC1=CC[C@@H]2[C@@H](CC[C@@]2(C)O)C(C)(C)[C@H]1CC[C@@H]1[C@@]2(C)CCC(=O)C(C)(C)O[C@@H]2CC[C@]1(C)O	49 µM	77	> 100	–	> 100	34.3	> 100	63.5	73	> 100	–	–	–	–	–	–	–	–	–	–
